Entries after “also recorded” stand apart in the source; their conditions may differ. Where two headings read alike, the source gives them in different places.

This is an account of results in US20090255006A1, “Transgenic Zebrafish” (University of Georgia Research Foundation, Inc., priority 2008, published 2009).

Series [1] concerns Nodal receptors. Description: Block of Nodal signaling with SB-505124 in Tg-SqtapGFPi embryos, gfp in situ hybridization. It is filed as in vivo, zebrafish. As to conditions: 50 μM.
Series [2] relates to Nodal receptors. As to conditions: cited from earlier work.
For series [3], the system named is sqt and cyc transcripts. Description: Targeted injection of morpholinos into the YSL, morphology of live embryos. It counts as in vivo, zebrafish. The settings on record: 8 ng MO into YSL at 3 hpf. The procedure:
Wild-type embryos were obtained from natural crosses of Wik fish. Collected embryos were maintained at 28.5° C. and staged according to morphological criteria (Kimmel et al., Dev. Dyn., 203:253-310 (1995). Translation blocking morpholinos against sqt and cyc have been described previously (Feldman and Stemple, Genesis, 30: 175-177 (2001); Karlen and Rebagliati, Genesis, 30: 126-128 (2001). The MO sequences are as follows: sqtMO: 5′-[…]-3′ (SEQ ID NO:1); sqtMIS: ATcTgAAAATgAAGcTAATAATgCAC-3′ (SEQ ID NO:2); cycMO: 5′-[…]-3′ (SEQ ID NO:3); cycMIS: 5′-GCcACTgCGAaGTGTGgTcAT-3′(SEQ ID NO:4). Nucleotides in lower case represent mismatches. The sqtMOs were tagged with lissamine, while the cycMOs were tagged with fluorescein. Embryos were injected with each MO at 3 hpf soon after formation of the YSL. The distribution of the MO in the YSL was verified 2 h after injection. Embryos with mislocalized MOs were removed from the experiments.
To test if sqt and cyc are required in the YSL, their function in this tissue was specifically knocked down by targeted injection of antisense morpholinos (MOs) directed against sqt and cyc transcripts. […] When cyc function alone is depleted from the YSL, all embryos have normal shields (100%, N=36) (FIG. 5E, arrow). At 24 hpf, the cyc-depleted embryos, are indistinguishable from embryos injected with control MOs (100%, N=22) (FIG. 5F). When sqt function is depleted from the YSL, by contrast, the majority of embryos lack the embryonic shield ([…], N=11) (FIG. 5G).

As for `Cc1cccc(-c2[nH]c(C(C)(C)C)nc2-c2ccc3c(c2)OCO3)n1` [SB-505124], in series [1], the “gfp expression in the EVL” value is reported as “reduced, but not eliminated; also recorded: reduced to a greater extent”; the “gfp expression in the YSL” value is “consistently reduced, but not completely eliminated; also recorded: persists”; the “gfp expression in the blastomeres” value is listed as “eliminated; also recorded: reduced to a greater extent”; the “overall levels of gfp expression” value was “reduced”. For the same compound, the “phenotype of treated embryos” value in series [2] (50 μM, added to embryos at 3 hpf or earlier) was “sufficient to phenocopy embryos lacking nodal-related gene function”. Also, the “phenotype of treated embryos” value in series [2] (later treatments, or lower doses) is on record as “milder phenotypes”.
Regarding “cycMO: translation blocking morpholino against cyc, 5′-GCGACTCCGAGCGTGTGCATGATG-3′ (SEQ ID NO:3), tagged with fluorescein (all phosphorodiamidate morpholino (PMO); fluorescein tag, position not given here)”, the “embryos with normal shields” value in series [3] (6 hpf) was determined as 100%. The “embryos indistinguishable from embryos injected with control MOs” value in series [3] (24 hpf) is listed as 100%.
Take “sqtMO: translation blocking morpholino against sqt, 5′-ATGTCAAATCAAGGTAATAATCCAC-3′ (SEQ ID NO:1), tagged with lissamine (all phosphorodiamidate morpholino (PMO); lissamine tag, position not given here)”: the “embryos lacking the embryonic shield” value in series [3] (6 hpf) was found to be 54%. Besides, the “embryos displaying mild cyclopia” value in series [3] (24 hpf) was 16%.
